According to US20220023306A1, “USE OF A PPAR-DELTA AGONIST IN THE TREATMENT OF FATTY ACID OXIDATION DISORDERS (FAOD)” (Reneo Pharmaceuticals, Inc., priority 2019, published 2022):

Columns and labels:
FXR = biological target: T1, FXR (Homo sapiens, UniProt Q96RI1); assay: activity on nuclear receptor FXR; assay type: cell-based
T1 sequence (Q96RI1 1-486): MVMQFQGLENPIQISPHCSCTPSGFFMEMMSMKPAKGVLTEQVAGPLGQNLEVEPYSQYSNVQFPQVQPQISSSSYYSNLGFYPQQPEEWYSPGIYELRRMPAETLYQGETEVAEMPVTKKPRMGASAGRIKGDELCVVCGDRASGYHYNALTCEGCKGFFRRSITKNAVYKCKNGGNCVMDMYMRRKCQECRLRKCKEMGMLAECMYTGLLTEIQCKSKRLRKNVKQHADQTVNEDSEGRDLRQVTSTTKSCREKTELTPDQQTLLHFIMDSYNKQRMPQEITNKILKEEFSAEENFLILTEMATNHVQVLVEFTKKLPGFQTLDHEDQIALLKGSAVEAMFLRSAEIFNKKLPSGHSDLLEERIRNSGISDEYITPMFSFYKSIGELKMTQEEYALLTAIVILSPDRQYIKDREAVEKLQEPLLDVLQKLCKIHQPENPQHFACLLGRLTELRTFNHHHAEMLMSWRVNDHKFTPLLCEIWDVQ

LXRβ = biological target: T2, LXRβ (Homo sapiens, UniProt P55055); assay: activity on nuclear receptor LXRβ; assay type: cell-based
T2 sequence (P55055 1-460): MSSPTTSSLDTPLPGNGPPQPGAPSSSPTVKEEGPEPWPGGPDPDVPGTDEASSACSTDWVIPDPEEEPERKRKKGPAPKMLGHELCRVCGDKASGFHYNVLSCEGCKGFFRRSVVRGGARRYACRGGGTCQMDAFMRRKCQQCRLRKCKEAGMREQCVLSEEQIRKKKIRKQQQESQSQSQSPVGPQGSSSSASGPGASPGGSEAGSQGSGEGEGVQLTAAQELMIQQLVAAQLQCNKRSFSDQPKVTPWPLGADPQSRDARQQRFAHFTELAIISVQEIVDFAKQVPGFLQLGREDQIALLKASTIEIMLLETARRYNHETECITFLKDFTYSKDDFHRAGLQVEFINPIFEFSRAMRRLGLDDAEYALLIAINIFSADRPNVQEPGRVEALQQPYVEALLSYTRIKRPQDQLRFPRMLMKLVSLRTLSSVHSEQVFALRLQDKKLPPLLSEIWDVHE

subjects with FAOD = assay: FAOD clinical trial with Compound 1; assay type: in vivo, human
Procedure: In some embodiments, outcome measures are assessed with tests that assess exercise tolerance. In some embodiments, exercise tolerance is assessed with exercise tests. Exercise tests include, but are not limited to, submaximal treadmill, walking tests (e.g. without limitation, 6 minute; 12 minute walks), run tests, treadmill and ergometry exercise testing. In some embodiments, exercise tests are used in combination with the Borg Scale of perceived exertion. In some embodiments, exercise tests are performed according to guidelines set forth by the American Thoracic Society (ATS).
In some embodiments, stable isotope methods are used to measure in vivo residual fatty acid oxidation capacity. Enrichment of ^13CO2 only occurs by one complete round of fatty acid oxidation. A representative protocol is as follows. A fasting blood sample is obtained after an overnight fast. Prior to breakfast, a resting indirect calorimetry is measured. Subjects are then given a meal (e.g a shake) containing 17-mg/kg ^13C-oleic acid. Breath samples are collected prior to (time 0) and again hourly at 1, 2, 3, 4, 5, 6, 7, and 8 hours following the ^13C-oleic administration. ^13C in breath samples are measured as a ratio of ^13C/^12C using the Delta Plus IRMS (Finnigan MAT, Bremen, Germany). Recovery is calculated as ^13C divided by the dose of ^13C administered. The amount of excess ^13C in breath is a measure of residual fatty acid oxidation capacity in subjects with disorders of long-chain fatty acid oxidation.
In some embodiments, improvements in fatty acid oxidation in subjects with a FAOD that are treated with a PPARδ agonist compound described herein (e.g. Compound 1, or a pharmaceutically acceptable salt thereof) are measured with a suitable ^13CO2 breath sample test. In some embodiments, a suitable ^13CO2 breath sample test comprises the steps of: 1) providing the subject a meal comprising ^13C-enriched fatty acid(s); 2) administering to the subject a PPARδ agonist compound, or a pharmaceutically acceptable salt thereof, after the consumption of the meal; and 3) collecting breath samples from the subject at regular intervals and measuring the relative amount of ^13CO2 to ^12CO2 in the breath samples. In some embodiments, the breath samples are collected about every hour. In some embodiments, the meal is enriched with a 13C labeled fatty acid, wherein the fatty acid is butyric acid, caproic acid, caprylic acid, capric acid, lauric acid, myristic acid, palmitic acid, stearic acid, arachidic acid, behenic acid, lignoceric acid, caproleic acid, lauroleic acid, myristoleic acid, palmitoleic acid, oleic acid, elaidic acid, vaccenic acid, gadoleic acid, erucic acid, brassidic acid, nervonic acid, linoleic acid, alpha-linolenic acid, gamma-linolenic acid, columbinic acid, stearidonic acid, mead acid, dihomo-γ-linolenic acid, arachidonic acid, eicosapentaenoic acid, docosapentaenoic acid, or docosahexaenoic acid.
A non-limiting example of a fatty acid oxidation disorder (FAOD) clinical trial in humans is described below. […]

[1] = system: human retinoid X receptor (hRXR); assay: human retinoid X receptor (hRXR) activity; assay type: cell-based

Cc1cc(OC/C=C(/c2ccc(F)cc2)c2ccc(C#CCN3CCOCC3)cc2)ccc1OCC(=O)O [Compound 1, (E)-[4-[3-(4-Fluorophenyl)-3-[4-[3-(morpholin-4-yl)propynyl]phenyl]allyloxy]-2-methyl-phenoxy]acetic acid]
activity on FXR (FXR): did not show any | activity on LXRβ (LXRβ): did not show any | exercise capacity (subjects with FAOD; 50 mg once daily for 12 weeks): Improvements | exhaled 13CO2 (subjects with FAOD; 50 mg once daily for 12 weeks): trend towards increases | heart rate during the last ten minutes of exercise (subjects with FAOD; 50 mg once daily for 12 weeks): decreases | distance walked during a 12-minute walk test (subjects with FAOD; 50 mg once daily for 12 weeks, FIG. 1): increase | tolerability (subjects with FAOD; subjects that participated in the study): well tolerated | hRXR activity [1]: did not show any
